# Data reported in patent US5837728A, “9-cis retinoic acid esters and amides and uses thereof” (priority 1995, dated 1998).
# Entries after “also recorded” stand apart in the source; their conditions may differ. Where two headings read alike, the source gives them in different places.
# Tests used:
# [1] = system: ornithine decarboxylase (ODC); assay: ODC/Retinoid Bioassay: inhibition of TPA induced ornithine decarboxylase activity; type: in vivo, CD-1 mice; conditions: topical, TPA induced
# Method: The ODC/Retinoid Bioassay is based on the method of Verma, A. K. and Boutwell, R. K., Cancer Res. (1977) 37:2196-2201. The ODC assay measures a compounds effect on the prevention of the induction of ODC, namely the effect of the retinoid compound on the inhibition of the tumor promoter 12-O-tetradecanoylphorbol-13-acetate (TPA) induced ODC activity. The assay is carried out using CD-1 mice (aged 7 to 9 weeks). The dorsal hair of the mice is shaved 3-4 days before testing. Four mice are used for each point. The test retinoids, at one of two dose levels (1.7 and 17 nmoles) dissolved in 0.2 ml of acetone is applied topically to the back of each shaved mouse. A single dose of TPA ([…]) is applied to the back of each treated mouse 30 minutes later. Control groups are treated with either acetone alone, TPA, or tretinoin. The mice are sacrificed by cervical dislocation 5 hours after TPA treatment.
# The dorsal skin encompassing the shaved and TPA exposed area is excised and placed in a 100 ml beaker containing distilled water maintained at 51° C.-57° C. The skin is soaked for 50-70 seconds at this temperature with intermittent stirring. The skin is placed epidermis side up in a chilled (0°-5° C.) stainless steel plate and the epidermal layer is scraped off with a razor blade. The epidermal layers from the 4 mice are pooled and placed in a homogenization tube with 2 ml of ODA buffer ([…] with […] pyridoxal phosphate, […] ethylenediaminetetraacetic acid (EDTA), 1 mM dithiothreitol, pH 7.5). The pooled epidermal layers are homogenized for 15 seconds at 0° C. using a Polytron homogenizer at a setting of 7.5. The homogenate is centrifuged at 30,000×g and the supernatant fraction is pipetted into a storage tube and frozen for about 72 hours.
# The homogenate is assayed for ODC activity as described by Verma and Boutwell to measure the release of ^14 CO2 from labeled DL(1-14C) ornithine. Incubations are carried out in disposable centrifuge tubes with center well holders containing filter paper impregnated with sodium hydroxide to absorb ^14 CO2. The incubation mixture consisted of 90 μl of L-ornithine, 350 μl of ODC buffer, 100 μl of 14C-ornithine (1.32 nm, Sp. Act:4.4 pCi/pM) and 10 μl of test sample. After incubation at 37° C. for 45 minutes, 0.5 ml of 2M chilled citric acid (4° C.) is added and incubation is continue for an additional 30 minutes to insure complete absorption of ^14 CO2. The filter paper is removed from the center well holders and set in 1 ml of water in capped scintillation vials for at least 1 hour before adding RBI 3820 scintillation cocktail. Radioactivity is measured in a Tri Carb Scintillation Counter. Results are expressed as pmol of ^14 CO2 released in 30 minutes per milligram of protein based on the specific activity of DL-14C-ornithine. The results are expressed in Table 2 below as the % reduction in ODC activity as compared to the control, for the compounds of each of the preceding Examples: […]
# skin of rabbits = assay: Topical assay for primary acute dermal irritation; type: in vivo
# Method: Twelve healthy, young, adult, female New Zealand White rabbits (Orycetolagus cuniculus), are used in the study. […] At the start of the study, the animals are in the weight range between 2.0 and 3.0 kilograms, and are approximately 11 weeks of age. Animals selected for the test are not subjected to any previous experimental procedures, and their skin is free from irritation, trauma and disease.
# Six animals are treated in this manner.
# The application sites are prepared by clipping the skin of the trunk free of hair approximately 24 hours before application of the dose. One application site on each animal is abraded by making minor incisions through the stratum corneum, but not sufficient to disturb the derma (that is, not sufficiently deep to produce bleeding). The second application site is intact skin.
# The dose is applied to a small area (approximately 6 cm^2) of skin and covered with a gauze patch which is held in place with Vetrap bandaging. The patches are applied to one intact site and one abraded site per animal. The test substance is kept in contact with the skin for 24 hours. The skin is not rinsed following the 24 hour exposure period.
# Animals are observed for signs of erythma and edema 24 and 72 hours after application of the test material. Observations are scored according to the Draize Scale for Scoring Skin Reactions as in Draize, J. H., Dermal Toxicity, Appraisal of the Safety of Chemicals in Foods, Drugs and Cosmetics Dermal Toxicity, pp. 46-59, Association of Food and Drug Officials of the U.S., Topeka, Kans., 1965. […] Animals are weighed at the beginning and at the end of the observation period.
# [2] = system: sun-damaged, wrinkled, aged skin of the face and forearms; assay: Topical assay for antiaging and antiactinic effects (dermatoheliosis); type: in vivo, human (patients)
# From the text: Four subjects aged 49 to 73, three females and one male having significant,easily observe, sun-damaged, wrinkled, aged skin of the face and forearms are subjects of a study to determine the effect of topical application of 2-(9-cis-retinoyloxy)-4-methoxyacetophenone in the treatment of dermatoheliosis. The three females had moderately severe sun-damaged skin and wrinkles of the forearms, hands and face. The one person has extremely severe sun damage in these areas as well as multiple actinic keratoses. The four subjects are provided with and applied to their entire faces (omitting the eyelids) and dorsal surface of the right forearm, once daily for 12 to 16 weeks, 0.1% concentration of 2-(9-cis-retinoyloxy)-4-methoxyacetophenone in a hydrophilic cream vehicle. The left forearm of each patient is treated daily with a non-medicated moisturizer of the patients choice.
# All subjects are evaluated every 4 weeks through the study for redness, peeling, skin surface texture and wrinkling. Biopsies (using a 4 mm punch) are taken from the dorsal surface of the right upper forearm at the beginning of the study and again from the same area at the end of the study. The biopsies are stained with H & E, Alcian Blue and collagen/elastic stains and compared by a qualified dematopathologist.
# rabbit skin = assay: Draize test for irritation (rabbit dermal irritation); type: in vivo
# skin wound of rats = conditions: 1% for 3 days before and 0.1% after the wound; cited from earlier work
# [3] = system: corneal epithelial wounds; conditions: cited from earlier work
# photoaged skin = conditions: cited from earlier work
# [4] = system: ultraviolet damaged skin of hairless mice; conditions: topical tretinoin, several weeks; cited from earlier work
# keratinocytes = conditions: in vitro; cited from earlier work
# [5] = system: epidermal growth factor cell surface receptors; conditions: in vitro; cited from earlier work
# [6] = 17.0 nM (as printed in Table 2)
# [7] = 0.1% cream, once daily for 12 to 16 weeks
# [8] = 0.1% retinoic acid hydrophilic cream, 16 weeks
smiles,measurement,setting,value
"COc1ccc(C(=O)COC(=O)/C=C(C)/C=C/C=C(C)\C=C\C2=C(C)CCCC2(C)C)cc1 [Compound 2, 2-(9-cis-retinoyloxy)-4'-methoxyacetophenone]",ODC activity reduction,[1]; 1.7 nM (as printed in Table 2),++
same,ODC activity reduction,[1]; [6],+++
same,Signs of erythema or edema formation (Draize scale),"skin of rabbits; 0.5 ml topical, intact and abraded skin, 24 and 72 hours",no signs of erythema or edema formation are evident in any of the 12 test animals
same,Body weight change,"skin of rabbits; beginning vs end of observation period, all 12 animals",All 12 animals exhibited a gain in body weight
same,Overt signs of toxicity,"skin of rabbits; rabbit, in vivo",No overt signs of toxicity are evident
same,Facial improvement of dermatoheliosis,[2]; [7],"all show an improvement in their dermatoheliosis; also recorded: Two of the four patients show very significant improvement in facial smoothness, dryness and fine wrinkling; also recorded: Moderate improvement of these parameters are observed in the other two patients"
same,Irritation during antiaging study,[2]; [7],No significant irritation is experienced by any patient; also recorded: Very slight pinkness and a feeling of slight tightness in facial skin develops in two patients
same,"Forearm improvement in surface texture, dryness and fine wrinkling","[2]; 0.1% cream, once daily, within two months","three show improvement in surface texture (smoothness), surface dryness and fine wrinkling within two months"
same,Biopsy differences before and after treatment,"[2]; dorsal right forearm, 4 mm punch",no significant differences in before treatment and after treatment biopsies
"CC1=C(/C=C/C(C)=C/C=C/C(C)=C/C(=O)O)C(C)(C)CCC1 [all-trans-retinoic acid, reference compound]",ODC activity reduction,[1]; [6],+++
same,Erythema Grade,rabbit skin; dose 0.001%,0.4
same,Erythema Grade,rabbit skin; dose 0.01%,0.8
same,Erythema Grade,rabbit skin; dose 0.1%,2.8
same,"ID50, dermal irritation",rabbit skin; rabbit,0.01%
same,Acceleration of healing compared to control group,skin wound of rats,18%
same,Increase in the healing rate,[3]; 0.1% tretinoin three times per day,21%
same,Increase in the healing rate,[3]; five times a day,35%
same,Effect on sun damaged skin (Weiss study),photoaged skin; [8],"some positive effects on the surface texture and wrinkling of sun damaged facial skin, and on the histology of the epidermal and stratum corneum layers of dorsal forearm skin"
same,Irritancy (Weiss study),photoaged skin; [8],moderately severe irritancy level
same,Patients who experienced dermatitis,photoaged skin; Weiss et al.,92%
same,Improvement of photoaging of the skin,"photoaged skin; cream containing 0.1% tretinoin, daily topical",could be improved within a 16-week period
same,"Redness, peeling, stinging, burning and dryness",photoaged skin; topical tretinoin therapy,consistently experienced by nearly all subjects
same,Subjects with dermatitis severe enough to require topical steroids,photoaged skin; topical tretinoin therapy,Eleven of fifteen subjects
same,Subjects withdrawn due to severity of dermatitis,photoaged skin; topical tretinoin therapy,Three of fifteen
same,Repair of ultraviolet damaged skin,[4],subepidermal repair zone in the treated mice was significantly wider than that in the untreated control group; also recorded: augmented the repair of ultraviolet damaged tissue in the hairless mouse with new blood vessel formation
same,Effect on keratinocyte proliferation and growth,keratinocytes,capacity to stimulate proliferation of quiescent keratinocytes in vitro
same,Effect on epidermal growth factor activity and receptor binding,[5],increases the mitogenic activity of epidermal growth factor and its binding to its cell surface receptors in vitro
